The target in assay [1] is T1, BCL6 (Homo sapiens (Human), UniProt P41182). Briefly: BCL6 TR-FRET assay (BCL6-Avitag-Biotin / BCoR-Cy5 peptide). The note with it: for IC50: class symbols A-D, read-out: IC50 (nM)***. It counts as binding. The gist of the method: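 After 30 min room-temperature preincubation of compound titrations with 2 nM biotinylated BCL6-Avitag, 100 nM Cy5-labelled BCoR peptide plus 2 nM Eu-streptavidin were added and TR-FRET read 2 h later. HEPES pH 7.5/125 mM NaCl buffer with Triton X, glutathione (or DTT) and BSA.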
(In TR-FRET formats the signal depends on donor and acceptor labels being close together.)

Assay [2] addresses T1, BCL6. Briefly: Immunofluorescence high content imaging of BCL6 degradation in T47D cells. It counts as cell-based. The note with it: for Dmax: T47D; for DC50: class symbols A-D, read-out: EC50 (nM)*. The gist of the method:
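BCL6 loss was quantified by high-content imaging (10×, 4 fields/well) after PFA fixation and anti-BCL6/Alexa-488 staining with Hoechst nuclear and CellMask counterstains. Compounds were applied for 3 days to T47D breast cancer cells in RPMI-10% FBS, 11 points, 3-fold steps, top 0.1 or 1 μM.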

On to `CC(=O)COc1cc2cc(Nc3nc(N4CCC(CCN5CCN(c6ccc7c(c6)C(=O)N(C6CCC(=O)NC6=O)C7=O)CC5)CC4)ncc3Cl)ccc2n(C)c1=O` (centres unmarked) [compound 162, 5-(4-(2-(1-(5-chloro-4-((1-methyl-2-oxo-3-(2-oxopropoxy)-1,2-dihydroquinolin-6-yl)amino)pyrimidin-2-yl)piperidin-4-yl)ethyl)piperazin-1-yl)-2-(2,6-dioxopiperidin-3-yl)isoindoline-1,3-dione], for which the IC50 at BCL6 [1] lay in the range of 10 to 50 nM. For the same compound, at BCL6 [2] (maximum, class symbols A-C), the Dmax was less than 50%. The DC50 at BCL6 [2] lay in the range of 10 to 50 nM.

On to `CC(=O)COc1cc2cc(Nc3nc(N4CCN(C(=O)C5CCN(c6ccc7c(c6)C(=O)N(C6CCC(=O)NC6=O)C7=O)CC5)CC4)ncc3Cl)ccc2n(C)c1=O` (centres unmarked) [compound 163, 5-(4-(4-(5-chloro-4-((1-methyl-2-oxo-3-(2-oxopropoxy)-1,2-dihydroquinolin-6-yl)amino)pyrimidin-2-yl)piperazine-1-carbonyl)piperidin-1-yl)-2-(2,6-dioxopiperidin-3-yl)isoindoline-1,3-dione], for which, on BCL6 [1], the IC50 was 10 to 50 nM. The Dmax on BCL6 [2] (maximum, class symbols A-C) is 50 to 70%. For the same compound, the DC50 on BCL6 [2] was 10 to 50 nM.

With `CC(=O)COc1cc2cc(Nc3nc(N4CCC(CCOC5CN(c6ccc7c(c6)C(=O)N(C6CCC(=O)NC6=O)C7=O)C5)CC4)ncc3Cl)ccc2n(C)c1=O` (centres unmarked) [compound 164, 5-(3-(2-(1-(5-chloro-4-((1-methyl-2-oxo-3-(2-oxopropoxy)-1,2-dihydroquinolin-6-yl)amino)pyrimidin-2-yl)piperidin-4-yl)ethoxy)azetidin-1-yl)-2-(2,6-dioxopiperidin-3-yl)isoindoline-1,3-dione], the IC50 on BCL6 [1] was in the range of 10 to 50 nM. The compound further showed a Dmax at BCL6 [2] (maximum, class symbols A-C) of less than 50%. Moreover, on BCL6 [2], the DC50 was more than 100 nM.

Consider `CC(=O)COc1cc2cc(Nc3nc(N4CCC(CN5CC6(C5)CN(c5ccc7c(c5)C(=O)N(C5CCC(=O)NC5=O)C7=O)C6)CC4)ncc3Cl)ccc2n(C)c1=O` (centres unmarked) [compound 165, 5-(6-((1-(5-chloro-4-((1-methyl-2-oxo-3-(2-oxopropoxy)-1,2-dihydroquinolin-6-yl)amino)pyrimidin-2-yl)piperidin-4-yl)methyl)-2,6-diazaspiro[3.3]heptan-2-yl)-2-(2,6-dioxopiperidin-3-yl)isoindoline-1,3-dione], for which the IC50 on BCL6 [1] lay in the range of 10 to 50 nM. This compound gave a Dmax at BCL6 [2] (maximum, class symbols A-C) of 50 to 70%. For the same compound, the DC50 at BCL6 [2] was 10 to 50 nM.

In the case of `CN(C)C(=O)COc1cc2cc(Nc3nc(N4CCC(CN5CCN(c6ccc7c(c6)C(=O)N(C6CCC(=O)NC6=O)C7=O)CC5)CC4)ncc3Cl)ccc2n(C)c1=O` (centres unmarked) [compound 166, 2-((6-((5-chloro-2-(4-((4-(2-(2,6-dioxopiperidin-3-yl)-1,3-dioxoisoindolin-5-yl)piperazin-1-yl)methyl)piperidin-1-yl)pyrimidin-4-yl)amino)-1-methyl-2-oxo-1,2-dihydroquinolin-3-yl)oxy)-N,N-dimethylacetamide], at BCL6 [1], the IC50 lay in the range of 50 to 100 nM. This compound also showed a Dmax on BCL6 [2] (maximum, class symbols A-C) of less than 50%. Further, the DC50 on BCL6 [2] was more than 100 nM.

As for `CNC(=O)COc1cc2cc(Nc3nc(N4CCCC(COc5ccc(C6CCN(CC#Cc7ccc8c(c7)CN(C7CCC(=O)NC7=O)C8=O)CC6)cc5)C4)ncc3Cl)ccc2n(C)c1=O` (centres unmarked) [compound 167, 2-((6-((5-chloro-2-(3-((4-(1-(3-(2-(2,6-dioxopiperidin-3-yl)-1-oxoisoindolin-5-yl)prop-2-yn-1-yl)piperidin-4-yl)phenoxy)methyl)piperidin-1-yl)pyrimidin-4-yl)amino)-1-methyl-2-oxo-1,2-dihydroquinolin-3-yl)oxy)-N-methylacetamide], at BCL6 [1], the IC50 fell in the range of 10 to 50 nM. Further, at BCL6 [2] (maximum, class symbols A-C), the Dmax is less than 50%. Besides, the DC50 on BCL6 [2] was more than 100 nM.

For `CNC(=O)COc1cc2cc(Nc3nc(N4CCC(OCCOCCOCCOCCCOc5ccc6c(c5)CN(C5CCC(=O)NC5=O)C6=O)CC4)ncc3Cl)ccc2n(C)c1=O` (centres unmarked) [compound 168, 2-((6-((5-chloro-2-(4-(2-(2-(2-(3-((2-(2,6-dioxopiperidin-3-yl)-1-oxoisoindolin-5-yl)oxy)propoxy)ethoxy)ethoxy)ethoxy)piperidin-1-yl)pyrimidin-4-yl)amino)-1-methyl-2-oxo-1,2-dihydroquinolin-3-yl)oxy)-N-methylacetamide], the IC50 at BCL6 [1] lay in the range of 10 to 50 nM. Besides, the Dmax on BCL6 [2] (maximum, class symbols A-C) fell in the range of 50 to 70%. Further, at BCL6 [2], the DC50 was more than 100 nM.

Consider `CC(=O)COc1cc2cc(Nc3nc(N4CCC(N(C)C5CCN(c6ccc7c(c6)C(=O)N(C6CCC(=O)NC6=O)C7=O)CC5)CC4)ncc3Cl)ccc2n(C)c1=O` (centres unmarked) [compound 169, 5-(4-((1-(5-chloro-4-((1-methyl-2-oxo-3-(2-oxopropoxy)-1,2-dihydroquinolin-6-yl)amino)pyrimidin-2-yl)piperidin-4-yl)(methyl)amino)piperidin-1-yl)-2-(2,6-dioxopiperidin-3-yl)isoindoline-1,3-dione], for which the IC50 at BCL6 [1] was in the range of 10 to 50 nM. In addition, the Dmax on BCL6 [2] (maximum, class symbols A-C) fell in the range of 50 to 70%. In addition, on BCL6 [2], the DC50 is less than 10 nM.

In the case of `CC(=O)COc1cc2cc(Nc3nc(N4CCC(OC5CCN(c6ccc7c(c6)C(=O)N(C6CCC(=O)NC6=O)C7=O)CC5)CC4)ncc3Cl)ccc2n(C)c1=O` (centres unmarked) [compound 170, 5-(4-((1-(5-chloro-4-((1-methyl-2-oxo-3-(2-oxopropoxy)-1,2-dihydroquinolin-6-yl)amino)pyrimidin-2-yl)piperidin-4-yl)oxy)piperidin-1-yl)-2-(2,6-dioxopiperidin-3-yl)isoindoline-1,3-dione], on BCL6 [1], the IC50 fell in the range of 10 to 50 nM. In addition, the Dmax at BCL6 [2] (maximum, class symbols A-C) is less than 50%. The DC50 at BCL6 [2] was in the range of 50 to 100 nM.

On to `CC(=O)COc1cc2cc(Nc3nc(C#CC4CCN(c5ccc6c(c5)C(=O)N(C5CCC(=O)NC5=O)C6=O)CC4)ncc3Cl)ccc2n(C)c1=O` (centres unmarked) [compound 171, 5-(4-((5-chloro-4-((1-methyl-2-oxo-3-(2-oxopropoxy)-1,2-dihydroquinolin-6-yl)amino)pyrimidin-2-yl)ethynyl)piperidin-1-yl)-2-(2,6-dioxopiperidin-3-yl)isoindoline-1,3-dione], for which the IC50 at BCL6 [1] lay within 10 to 50 nM. This compound showed a Dmax on BCL6 [2] (maximum, class symbols A-C) of less than 50%. In addition, the DC50 at BCL6 [2] was 10 to 50 nM.

In the case of `CC(=O)COc1cc2cc(Nc3nc(N4CC(OCCN5CCN(c6ccc7c(c6)C(=O)N(C6CCC(=O)NC6=O)C7=O)CC5)C4)ncc3Cl)ccc2n(C)c1=O` (centres unmarked) [compound 172, 5-(4-(2-((1-(5-chloro-4-((1-methyl-2-oxo-3-(2-oxopropoxy)-1,2-dihydroquinolin-6-yl)amino)pyrimidin-2-yl)azetidin-3-yl)oxy)ethyl)piperazin-1-yl)-2-(2,6-dioxopiperidin-3-yl)isoindoline-1,3-dione], the IC50 at BCL6 [1] is not below 100 nM. The DC50 on BCL6 [2] was more than 100 nM.

In the case of `CC(=O)COc1cc2cc(Nc3nc(C#CC4CCCN(Cc5ccc6c(c5)C(=O)N(C5CCC(=O)NC5=O)C6=O)C4)ncc3Cl)ccc2n(C)c1=O` (centres unmarked) [compound 173, 5-((3-((5-chloro-4-((1-methyl-2-oxo-3-(2-oxopropoxy)-1,2-dihydroquinolin-6-yl)amino)pyrimidin-2-yl)ethynyl)piperidin-1-yl)methyl)-2-(2,6-dioxopiperidin-3-yl)isoindoline-1,3-dione], the IC50 at BCL6 [1] is not below 100 nM. The compound further showed a Dmax on BCL6 [2] (maximum, class symbols A-C) of less than 50%. Also, on BCL6 [2], the DC50 was 10 to 50 nM.

For the compound `CNC(=O)/C=C/c1cc2cc(Nc3nc(N4CCC(CN5CCN(c6ccc7c(c6)C(=O)N(C6CCC(=O)NC6=O)C7=O)CC5)CC4)ncc3Cl)ccc2n(C)c1=O` (centres unmarked) [compound 174, (E)-3-(6-((5-chloro-2-(4-((4-(2-(2,6-dioxopiperidin-3-yl)-1,3-dioxoisoindolin-5-yl)piperazin-1-yl)methyl)piperidin-1-yl)pyrimidin-4-yl)amino)-1-methyl-2-oxo-1,2-dihydroquinolin-3-yl)-N-methylacrylamide], the IC50 at BCL6 [1] was 10 to 50 nM. For the same compound, at BCL6 [2] (maximum, class symbols A-C), the Dmax lay in the range of 50 to 70%.

As to `CC(=O)COc1cc2cc(Nc3nc(N4CCC(CN5CCN(c6ccc7c(c6)CN(C6CCC(=O)NC6=O)C7=O)CC5)CC4)ncc3Cl)ccc2n(C)c1=O` (centres unmarked) [compound 175, 3-(5-(4-((1-(5-chloro-4-((1-methyl-2-oxo-3-(2-oxopropoxy)-1,2-dihydroquinolin-6-yl)amino)pyrimidin-2-yl)piperidin-4-yl)methyl)piperazin-1-yl)-1-oxoisoindolin-2-yl)piperidine-2,6-dione], the IC50 on BCL6 [1] is less than 10 nM. Also, the maximal degradation (Dmax) at BCL6 [2] (maximum, class symbols A-C) lay within 50 to 70%.

In the case of `CC(=O)COc1cc2cc(Nc3nc(N4CCC(CN(C)CC#Cc5ccc6c(c5)C(=O)N(C5CCC(=O)NC5=O)C6=O)CC4)ncc3Cl)ccc2n(C)c1=O` (centres unmarked) [compound 176, 5-(3-(((1-(5-chloro-4-((1-methyl-2-oxo-3-(2-oxopropoxy)-1,2-dihydroquinolin-6-yl)amino)pyrimidin-2-yl)piperidin-4-yl)methyl)(methyl)amino)prop-1-yn-1-yl)-2-(2,6-dioxopiperidin-3-yl)isoindoline-1,3-dione], the IC50 on BCL6 [1] was not below 100 nM. The compound also displayed a Dmax at BCL6 [2] (maximum, class symbols A-C) of less than 50%.

For `CC(=O)COc1cc2cc(Nc3nc(N4CCN(C)C(COc5ccc6c(c5)C(=O)N(C5CCC(=O)NC5=O)C6=O)C4)ncc3Cl)ccc2n(C)c1=O` (centres unmarked) [compound 194, 5-((4-(5-chloro-4-((1-methyl-2-oxo-3-(2-oxopropoxy)-1,2-dihydroquinolin-6-yl)amino)pyrimidin-2-yl)-1-methylpiperazin-2-yl)methoxy)-2-(2,6-dioxopiperidin-3-yl)isoindoline-1,3-dione], on BCL6 [1], the EC50 lay within 10 to 50 nM. Moreover, on BCL6 [2], the IC50 was not below 100 nM and the Dmax lay within 50 to 70%.

For orientation: IC50 means the concentration needed to halve the response being measured. By Dmax is commonly meant the largest share of the target that was removed. The term EC50 denotes the concentration at which the effect is half-maximal. Read a high EC50 as a need for much substance.
